Data on two compounds can be found in ChEMBL document CHEMBL1681640, “Serendipitous discovery of a new class of agonists for the melanocortin 1 and 4 receptors and a new class of cyclophanes” (Bioorg Med Chem Lett, 2011).

For assay [1], the target named is T1, Melanocortin receptor 4 (Homo sapiens, UniProt P32245). Put plainly: Inhibition of human MC4 receptor expressed in BHK cells in presence of SHU9119 receptor antagonist.
Target sequence in this assay (P32245 whole entry, looked up): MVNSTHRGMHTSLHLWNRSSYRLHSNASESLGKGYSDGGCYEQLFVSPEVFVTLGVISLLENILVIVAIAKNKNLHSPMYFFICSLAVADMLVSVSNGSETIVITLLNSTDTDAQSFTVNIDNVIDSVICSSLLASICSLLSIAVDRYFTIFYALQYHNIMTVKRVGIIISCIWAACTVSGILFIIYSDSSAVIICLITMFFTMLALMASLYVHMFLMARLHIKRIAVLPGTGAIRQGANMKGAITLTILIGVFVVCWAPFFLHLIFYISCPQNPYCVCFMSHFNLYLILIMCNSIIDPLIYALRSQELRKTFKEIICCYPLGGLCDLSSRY
In assay [2] the target is T2, Melanocyte-stimulating hormone receptor (Homo sapiens, UniProt Q01726). The experiment in a line: Agonist activity at human MC1 receptor expressed in BHK cells assessed as stimulation of agonist-induced cAMP accumulation. The assay is classed as functional, cell-based.
Target sequence in this assay (Q01726 whole entry): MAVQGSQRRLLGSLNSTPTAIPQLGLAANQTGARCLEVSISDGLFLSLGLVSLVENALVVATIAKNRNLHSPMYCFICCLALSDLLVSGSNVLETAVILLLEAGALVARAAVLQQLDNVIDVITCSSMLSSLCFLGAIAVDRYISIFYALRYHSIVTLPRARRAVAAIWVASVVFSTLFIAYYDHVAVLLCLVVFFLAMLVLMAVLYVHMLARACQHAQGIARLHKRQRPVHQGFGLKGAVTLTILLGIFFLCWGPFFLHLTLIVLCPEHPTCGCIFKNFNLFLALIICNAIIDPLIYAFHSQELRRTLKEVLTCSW
Assay [3] addresses T3, Melanocortin receptor 5 (Homo sapiens, UniProt P33032). The experiment in a line: Displacement of [125I]NDP-alpha-MSH from human MC5 receptor expressed in BHK cells. It is filed as cell-based.
Assay [4] addresses T2, Melanocyte-stimulating hormone receptor. The experiment in a line: Agonist activity at human MC1 receptor expressed in BHK cells assessed as stimulation of agonist-induced cAMP accumulation relative to agonist. It is filed as functional, cell-based.
Target sequence in this assay (Q01726 whole entry, looked up): as the sequence (Q01726 whole entry) above
Assay [5] deals with T1, Melanocortin receptor 4. Put plainly: Displacement of [125I]NDP-alpha-MSH from human MC4 receptor expressed in BHK cells. It is filed as cell-based.
Target sequence in this assay (P32245 whole entry): as the sequence (P32245 whole entry, looked up) above
The target in assay [6] is T4, Melanocortin receptor 3 (Homo sapiens, UniProt P41968). Put plainly: Agonist activity at human MC3 receptor expressed in BHK cells assessed as stimulation of agonist-induced cAMP accumulation. It is filed as functional, cell-based.
T4 sequence (P41968 whole entry): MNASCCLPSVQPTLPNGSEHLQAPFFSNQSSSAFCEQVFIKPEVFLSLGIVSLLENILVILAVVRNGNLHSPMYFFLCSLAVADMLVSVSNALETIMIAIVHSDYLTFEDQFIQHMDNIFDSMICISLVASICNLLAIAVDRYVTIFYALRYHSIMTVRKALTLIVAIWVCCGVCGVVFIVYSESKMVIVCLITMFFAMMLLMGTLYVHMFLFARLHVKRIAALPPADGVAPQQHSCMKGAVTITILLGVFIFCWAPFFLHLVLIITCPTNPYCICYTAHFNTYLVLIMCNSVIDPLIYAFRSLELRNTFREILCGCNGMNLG
The test system of assay [7] is Rattus norvegicus. Put plainly: Reduction in food intake in Sprague-Dawley rat at 0.1 to 1 mg/kg, ip for first 3 hrs. The assay is classed as functional, organism-based.
Assay [8] has as its target T2, Melanocyte-stimulating hormone receptor. The experiment in a line: Displacement of [125I]NDP-alpha-MSH from human MC1 receptor expressed in BHK cells. The assay is classed as cell-based.
Target sequence in this assay (Q01726 whole entry): as the sequence (Q01726 whole entry) above
The target of assay [9] is T1, Melanocortin receptor 4. The experiment in a line: Agonist activity at human MC4 receptor expressed in BHK cells assessed as stimulation of agonist-induced cAMP accumulation relative to agonist. It is filed as functional, cell-based.
Target sequence in this assay (P32245 whole entry): as the sequence (P32245 whole entry, looked up) above
Assay [10] has as its target T1, Melanocortin receptor 4. The experiment in a line: Agonist activity at human MC4 receptor expressed in BHK cells assessed as stimulation of agonist-induced cAMP accumulation. It is filed as functional, cell-based.
Target sequence in this assay (P32245 whole entry): as the sequence (P32245 whole entry, looked up) above
Assay [11] addresses T4, Melanocortin receptor 3. Put plainly: Displacement of [125I]NDP-alpha-MSH from human MC3 receptor expressed in BHK cells. It is filed as cell-based.
The target of assay [12] is T3, Melanocortin receptor 5. The experiment in a line: Agonist activity at human MC5 receptor expressed in BHK cells assessed as stimulation of agonist-induced cAMP accumulation. It is filed as functional, cell-based.

Calls of active or inactive are those of the source. The calls are words filed in the database; no cut-off is given here.

T3 sequence (P33032 whole entry): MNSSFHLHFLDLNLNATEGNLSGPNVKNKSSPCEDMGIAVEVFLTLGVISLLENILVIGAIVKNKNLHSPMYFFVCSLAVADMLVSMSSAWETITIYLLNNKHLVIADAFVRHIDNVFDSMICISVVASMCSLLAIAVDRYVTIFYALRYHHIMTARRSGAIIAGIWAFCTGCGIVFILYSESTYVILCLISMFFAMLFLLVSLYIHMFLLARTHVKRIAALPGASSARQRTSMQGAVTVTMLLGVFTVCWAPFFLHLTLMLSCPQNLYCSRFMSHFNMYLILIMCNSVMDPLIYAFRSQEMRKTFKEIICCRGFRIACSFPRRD

Consider `COCC(=O)N[C@H]1Cc2ccc(OC)c(c2)Cc2ccc(cc2)Oc2cccc(c2)CN(CCCN2CCN(CCCN)CC2)C1=O`, for which the inhibition entry in assay [1] was “Active”. The concentration giving a half-maximal response (EC50) is 16 nM in assay [2], above 10 µM in assay [6], 466 nM in [10] and above 10 µM in [12]. Moreover, the inhibitory constant (Ki) was determined as 388 nM in [3], 392 nM in assay [5], 116 nM in assay [8] and 1180 nM in [11]. The maximum response (Emax) in assay [4] stood at 83%; in assay [9], 61%. In assay [7], the outcome was Active.
Consider `COCC(=O)N[C@H]1Cc2cc3c(c(c2)Cc2ccc(cc2)Oc2cccc(c2)CN(CCCN2CCN(CCCN)CC2)C1=O)OCOC3`, for which, in [1], the inhibition entry is “Active”. Further, the EC50 is 12 nM in assay [2], above 10 µM in assay [6], 697 nM in [10] and above 10 µM in [12]. The Ki was 1530 nM in assay [3], 403 nM in [5], 328 nM in assay [8] and 4530 nM in assay [11]. Besides, the results for the Emax in assay [4] and in assay [9] were 85% and 98%, respectively.
